Here are results for 2 molecules from publication PMC3950514 (mBio, 2014).

Assay [1] addresses CnCam1 with human calcineurin (Cryptococcus neoformans, UniProt J9VTH9). Briefly: malachite green phosphate release from RII phosphopeptide by human calcineurin. In kind it is biochemical.
Assay [2] concerns the target C. neoformans calmodulin (Cam1) (C. neoformans). The experiment in a line: pull-down.

green fluorescent protein (GFP)-tagged C. neoformans calcineurin (Cna1-GFP), sequence (O42773 whole entry): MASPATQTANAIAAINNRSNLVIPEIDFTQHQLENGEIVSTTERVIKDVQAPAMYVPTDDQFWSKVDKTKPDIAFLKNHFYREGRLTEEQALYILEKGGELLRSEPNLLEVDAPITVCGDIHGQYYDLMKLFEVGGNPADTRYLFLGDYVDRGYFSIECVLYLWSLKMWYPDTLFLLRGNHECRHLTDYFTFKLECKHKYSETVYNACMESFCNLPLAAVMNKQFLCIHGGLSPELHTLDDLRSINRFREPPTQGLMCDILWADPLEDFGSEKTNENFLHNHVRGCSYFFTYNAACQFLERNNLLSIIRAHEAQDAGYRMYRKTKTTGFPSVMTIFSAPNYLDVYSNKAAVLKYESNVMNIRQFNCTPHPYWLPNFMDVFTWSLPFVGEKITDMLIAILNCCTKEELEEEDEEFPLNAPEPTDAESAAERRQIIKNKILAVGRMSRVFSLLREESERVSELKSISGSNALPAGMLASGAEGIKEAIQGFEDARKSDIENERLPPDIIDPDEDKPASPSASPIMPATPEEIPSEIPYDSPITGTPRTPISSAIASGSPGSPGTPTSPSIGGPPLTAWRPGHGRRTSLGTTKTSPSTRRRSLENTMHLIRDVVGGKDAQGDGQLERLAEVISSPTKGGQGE

`CN(C)CCOc1ccc(/C(=C(/CCCl)c2ccccc2)c2ccccc2)cc1` [TOR, toremifene]: in assay [1], the IC50 – broadly, the concentration that gives 50% inhibition – is 61.6 µM.

“green fluorescent protein (GFP)-tagged C. neoformans calcineurin (Cna1-GFP) (from UniProt O42773 1-639) (enzyme)” registered a percent reduction of the bound amount with toremifene (20 µg/ml) against DMSO in assay [2] of 45%.
